Assay results reported in PMC6792352, “Limited Chemical Structural Diversity Found to Modulate Thyroid Hormone Receptor in the Tox21 Chemical Library” (Environmental Health Perspectives, 2019).
Counter-ions that a name gives are not always drawn.

Test: in vitro
Settings: rat, gh3-tre-luc cells, AC50 (uM) modified / 1000

Compound	CC50 at 24 h [µM]
Brc1cc2ccccc2c2ccccc12 [9-Bromophenanthrene]	> 90
CCCCC(CC)CO (centres unmarked) [2-Ethyl-1-hexanol]	> 90
CN1C(=O)CN=C(c2ccccc2)c2cc([N+](=O)[O-])ccc21 [Nimetazepam]	> 50
COc1ccccc1N=Nc1c(S(=O)(=O)O)cc2cc(S(=O)(=O)O)cc(NC(C)=O)c2c1O [C.I. Acid Violet 12, disodium salt]	36.9
C=C(C)[C@H]1CC=C(C)CC1 [D-Limonene]	> 90
Oc1cccc2ccccc12 [1-Naphthol]	> 90
CN[C@@]1(c2ccccc2Cl)CCCCC1=O [(+)-Ketamine]	> 50
O=S(=O)(O)CCCN1CCOCC1 [4-Morpholinepropanesulfonic acid]	> 90
CC(=O)OCC(=O)[C@@]1(OC(C)=O)[C@@H](C)C[C@H]2[C@@H]3C[C@H](F)C4=CC(=O)C=C[C@]4(C)[C@@]3(F)[C@@H](O)C[C@@]21C [Diflorasone diacetate]	> 50
CCCCCC1C(=O)CCC1CC(=O)OC (centres unmarked) [Methyl dihydrojasmonate]	> 90
CC(C)(C)NCCNC(C)(C)C [N,N'-Di-tert-butylethane-1,2-diamine]	> 90
CC(C)C(=O)OC/C=C/c1ccccc1 [3-Phenylprop-2-en-1-yl 2-methylpropanoate]	> 90
[O-][S+](c1cc(Cl)cc(Cl)c1O)c1cc(Cl)cc(Cl)c1O [Bithionoloxide]	46
CCCCCCCCCCCC(=O)OCC(O)CO (centres unmarked) [1-Monolaurin]	> 90
NCC(O)c1ccc(O)cc1 (centres unmarked) [Octopamine hydrochloride]	> 90
CSc1ccc(C=O)cc1 [4-(Methylthio)benzaldehyde]	> 90
COc1ccc2cc1Oc1ccc(cc1)C[C@H]1c3c(cc4c(c3Oc3cc5c(cc3OC)CCN(C)[C@@H]5C2)OCO4)CCN1C [Cepharanthine]	12.3
Cc1ccc(N/N=c2\c(=O)cc/c(=N/Nc3ccc(S(=O)(=O)O)cc3)c2=O)c(C)c1 [C.I. Acid Orange 24, monosodium salt]	59.4
NCC1(Cc2noc(=O)[nH]2)CCCCC1 [PD 0200347]	> 90
O=C1NC(=O)[C@H]2[C@@H]1[C@@H]1C=C[C@H]2C1 [Noreximide]	> 50
C[N+]1(CCC(C(N)=O)(c2ccccc2)c2ccccc2)CCCCC1 [Fenpiverinium bromide]	> 50
CC(C)c1cccc(C(C)C)c1O [Propofol]	> 90
Cc1cc(C(C)(C)C)c(O)c(C)c1CC1=NCCN1 [Oxymetazoline]	> 50
c1ccc(/N=N/c2ccccc2)cc1 [Azobenzene]	> 90
Cc1cccc(Oc2ccccc2)c1 [1-Methyl-3-phenoxybenzene]	> 90

Compound	CC50 at 24 h [µM]
CCOCCOCCOC(C)=O [2-(2-Ethoxyethoxy)ethyl acetate]	> 90
O=S(=O)(O)c1ccc2ccccc2c1 [Sodium 2-naphthalenesulfonate]	> 90
O=C(O)COC(=O)Cc1ccccc1Nc1c(Cl)cccc1Cl [Aceclofenac]	> 20
O=C(c1ccccc1)c1cccc(O)c1 [3-Hydroxybenzophenone]	> 90
CC(=O)CCCCn1c(=O)c2c(ncn2C)n(C)c1=O [Pentoxifylline]	> 20
C=CCON=C(CCC)C1C(=O)CC(C)(C)C(C(=O)OC)C1=O (centres unmarked) [Alloxydim-sodium]	> 90
O=[N+]([O-])c1cccc2ccccc12 [1-Nitronaphthalene]	> 90
CC(=O)OCC(=O)[C@@]12OC3(CCCC3)O[C@@H]1C[C@H]1[C@@H]3CCC4=CC(=O)C=C[C@]4(C)[C@@]3(F)[C@@H](O)C[C@@]12C [Amcinonide]	> 50
C=C(C)CCCC(C)CCO (centres unmarked) [Rhodinol]	> 90
CC=C(C)C(C)=O [3-Methyl-3-penten-2-one]	> 90
NNc1nnc(NN)c2ccccc12 [Dihydralazine]	> 50
N#CSc1ccc(N)c([N+](=O)[O-])c1 [2-Nitro-4-thiocyanoaniline]	51.1
Cc1cc(O)c2ccccc2c1O [Menadiol]	37.2
CC(CC(C)C)=NO [N-Hydroxy-4-methylpentan-2-imine]	> 90
COC(=O)C1=C(C)NC(C)=C(C(=O)OC(C)C)C1c1cccc2nonc12 (centres unmarked) [Isradipine]	> 20
OCC(O)COc1ccc(Cl)cc1 (centres unmarked) [Chlorphenesin]	> 50
COCC(=O)O[C@]1(CCN(C)CCCc2nc3ccccc3[nH]2)CCc2cc(F)ccc2[C@@H]1C(C)C [Mibefradil dihydrochloride]	1.9
O=C(Nc1ccc(O)cc1)c1ccccc1O [Osalmid]	> 50
O=c1cc(CO)occ1O [Kojic acid]	> 50
CN(C)CC/C=C1/c2ccccc2Sc2ccc(Cl)cc21 [Chlorprothixene]	11
CC(/C=C/C=C(\C)C(=O)O[C@@H]1O[C@H](CO[C@@H]2O[C@H](CO)[C@@H](O)[C@H](O)[C@H]2O)[C@@H](O)[C@H](O)[C@H]1O)=C\C=C\C=C(C)\C=C\C=C(/C)C(=O)O[C@@H]1O[C@H](CO[C@@H]2O[C@H](CO)[C@@H](O)[C@H](O)[C@H]2O)[C@@H](O)[C@H](O)[C@H]1O [Crocin]	> 50
IC(I)I [Iodoform]	> 90
Cc1cc(O)c2c(c1)C(=O)c1cccc(O)c1C2=O [Chrysophanic acid]	> 50
CC1COC(Cn2cncn2)(c2ccc(Oc3ccc(Cl)cc3)cc2Cl)O1 (centres unmarked) [Difenoconazole]	41.3
CC(O)COC(C)(C)C (centres unmarked) [1-tert-Butoxy-2-propanol]	> 90

Compound	CC50 at 24 h [µM]
O=C(OCCOCCO)c1ccccc1Nc1cccc(C(F)(F)F)c1 [Etofenamate]	> 20
O=C(O)CO [Glycolic acid]	> 90
NS(=O)(=O)c1ccc(C(=O)O)cc1 [Carzenide]	> 50
CC(C=O)Cc1ccc(C(C)C)cc1 (centres unmarked) [Cyclamen aldehyde]	> 90
CC(=O)NCCCS(=O)(=O)O [Acamprosate calcium]	> 40
Cc1oc(C)c(C(=O)Nc2ccccc2)c1C [Methfuroxam]	> 90
C/C(=C\C(=O)OCCCCCCCCC(=O)O)C[C@@H]1OC[C@H](C[C@@H]2O[C@H]2[C@@H](C)[C@H](C)O)[C@@H](O)[C@H]1O [Mupirocin]	> 50
C[C@H](N)C(=O)c1ccccc1 [(-)- (S)-Cathinone hydrochloride]	> 50
CCCCCCOC(=O)c1ccc(O)cc1 [Hexylparaben]	56.8
OC[C@@H](O)C(O)[C@@H](O)CO (some centres unmarked) [Xylitol]	> 90
CC1(C)O[C@@H]2C[C@H]3[C@@H]4CCC5=CC(=O)C=C[C@]5(C)[C@@]4(F)[C@@H](O)C[C@]3(C)[C@]2(C(=O)CO)O1 [Triamcinolone acetonide]	> 90
O=C1/C(=C/c2cccs2)CCC/C1=C\c1cccs1 [Tenylidone]	> 50
CC(CO)c1ccccc1 (centres unmarked) [2-Phenylpropan-1-ol]	> 90
CCCC(=O)OC[C@@H](OC(=O)CCC)[C@@H](OC(=O)CCC)[C@H](Cn1c2nc(=O)[nH]c(=O)c-2nc2cc(C)c(C)cc21)OC(=O)CCC [Riboflavin tetrabutyrate]	> 50
C=CCn1c(=O)n(CC=C)c(=O)n(CC=C)c1=O [Triallyl isocyanurate]	> 90
CC(=O)Nc1ncc([N+](=O)[O-])s1 [Nithiamide]	> 50
Cc1ccccc1C#N [2-Tolunitrile]	> 90
N[C@@H]1CN(c2c(F)cc3c(=O)c(C(=O)O)cn([C@@H]4C[C@@H]4F)c3c2Cl)CC12CC2 [Sitafloxacin]	> 50
CC1C(C)(C)C2=C(C(=O)CCC2)C1(C)C (centres unmarked) [Dihydro-1,1,2,3,3-pentamethyl-4(5H)-indanone]	> 90
O=C(O)C[C@H](O)C[C@H](O)/C=C/c1c(C2CC2)nc2ccccc2c1-c1ccc(F)cc1 [Pitavastatin calcium]	> 50
CCCOCC(C)O (centres unmarked) [1-Propoxy-2-propanol]	> 90
CC(C(=O)O)c1ccc(/C=C2\CCCCC2=O)cc1 (centres unmarked) [Pelubiprofen]	> 50
CCC(=O)OCCc1ccccc1 [2-Phenylethyl propionate]	> 90
CNCCc1ccccn1 [Betahistine mesylate]	> 20

Same assay, conditions: rat, gh3-tre-luc cells, AC50 (uM) modified / 1000, Tox21_110001=Tox21_110368; viability, 1 nM T3 present, 24 h

Compound	CC50 at 24 h [µM]
CCC1(CC)C(=O)C=CNC1=O [Pyrithyldione]	> 50

Same assay, conditions: rat, gh3-tre-luc cells, AC50 (uM) modified / 1000, Tox21_110001=Tox21_111448; viability, 1 nM T3 present, 24 h

Compound	CC50 at 24 h [µM]
CC(C)CC(N(C)C)C1(c2ccc(Cl)cc2)CCC1 (centres unmarked) [Sibutramine hydrochloride]	> 50

Same assay, conditions: rat, gh3-tre-luc cells, AC50 (uM) modified / 1000, Tox21_110001=Tox21_112016; viability, 1 nM T3 present, 24 h

Compound	CC50 at 24 h [µM]
CC(C)(C)NCC(O)c1cc(Cl)c(N)c(Cl)c1 (centres unmarked) [Clenbuterol]	31.8

Same assay, conditions: rat, gh3-tre-luc cells, AC50 (uM) modified / 1000, Tox21_110001=Tox21_200757; viability, 1 nM T3 present, 24 h

Compound	CC50 at 24 h [µM]
CN(C)c1ccc(N=Nc2ccccc2)cc1 [4-(Dimethylamino)azobenzene]	> 90

Same assay, conditions: rat, gh3-tre-luc cells, AC50 (uM) modified / 1000, Tox21_110001=Tox21_200801; viability, 1 nM T3 present, 24 h

Compound	CC50 at 24 h [µM]
C=CCBr [Allyl bromide]	> 100

Same assay, conditions: rat, gh3-tre-luc cells, AC50 (uM) modified / 1000, Tox21_110001=Tox21_202460; viability, 1 nM T3 present, 24 h

Compound	CC50 at 24 h [µM]
O=C(O)CC[N+](=O)[O-] [3-Nitropropionic acid]	> 90

Same assay, conditions: rat, gh3-tre-luc cells, AC50 (uM) modified / 1000, Tox21_110001=Tox21_301361; viability, 1 nM T3 present, 24 h

Compound	CC50 at 24 h [µM]
CNC(=O)Oc1ccccc1C(C)C [Isoprocarb]	> 90

Same assay, conditions: rat, gh3-tre-luc cells, AC50 (uM) modified / 1000, Tox21_110001=Tox21_302106; viability, 1 nM T3 present, 24 h

Compound	CC50 at 24 h [µM]
C#CC1(O)CCCCC1 [1-Ethynylcyclohexanol]	> 90

Same assay, conditions: rat, gh3-tre-luc cells, AC50 (uM) modified / 1000, Tox21_110001=Tox21_303039; viability, 1 nM T3 present, 24 h

Compound	CC50 at 24 h [µM]
COc1ccc(N)cc1 [4-Methoxyaniline]	> 100
